Legend:
[1] = system: patients with moderate, but not mild Alzheimer's disease; details: 36-week study; cited from earlier work
[2] = system: mild to moderate Alzheimer patients; details: 78-week study; cited from earlier work
[3] = liver microsome stability; format: in vitro ADME, Mouse
[4] = system: Primary rat cultured cortical neurons; details: cited from earlier work
patients with mild AD = details: 12 weeks; cited from earlier work
CaCo-2 cells = assay: in vitro permeability of a layer of CaCo-2 cells; format: in vitro ADME, human; details: for mean A−>B Papp (apparent permeability): test conc 50 μM
[5] = stability in mouse plasma
[6] = system: Mice with lesions of the nucleus basalis magnocellularis (nBm); details: cited from earlier work
acetylcholinesterase [7] = biological target: T1, acetylcholinesterase (Homo sapiens, UniProt P22303); assay: acetylcholinesterase inhibition; format: biochemical
Excerpt: This compound was first described in Han et al as a cholinesterase inhibitor in Bioorg. & Medicinal Chemistry Letters 1, 11 579-580 (1991).

mice = details: cited from earlier work
Bv-2 microglial cells = assay: Abeta 1-42 oligomer clearance in microglial Bv-2 cell culture; format: cell-based; details: applied for 24 hours, 0.11 to 0.67 μM; oligomerized Aβ1-42 10 μM for 6 h
Protocol: Abeta oligomers were prepared using beta-amyioid (1-42) from American Peptide (Product #62-0-80). One aliquot was dissolved in an adequate volume of TBS (50 mM Tris-Buffer, 150 mM NaCl, pH=7.4) to achieve a final concentration of 1.7 mg/ml (corresponding to 340 μM). The solution was sonicated for 2 minutes and then diluted 1:2 in water to obtain a final concentration of 170 μM. Next, the Abeta was allowed to aggregate at 4′C for 48 hours. Prior to application, the solution was sonicated for another minute.
Bv-2 microglial cells were kept in culture medium (DMEM medium, 10% FBS, 2 mM glutamine, 1% Penc/Strep) until 80-90% confluency. Cells were maintained at 37° C., 95% humidity and 5% CO2. Afterwards, cells were seeded in culture medium on 24-well plates at a cell density of 1×10^5 cells per well. After 24 h, the medium was exchanged for the treatment medium (DMEM medium, 5% FBS, 2 mM glutamine). […] The medium was separated by affinity (removing monomers) and the oligomers not phagocytosed were disaggregated by HFIP treatment and measured by MSD. […]
The immune assay was carried out according to the manual and plates were read on the Sector Imager (MSD). Analyte levels were evaluated according to adequate Aβ peptide standards (MSD). […] Group differences are evaluated by one-way ANOVA.

acetylcholinesterase [8] = biological target: T1, acetylcholinesterase; details: read-out: IC50 for acetylcholinesterase inhibition; cited from earlier work
Rat cortical neurons = assay: neurite network assessment with Aβ1-42 oligomers in cortical cell culture; format: cell-based
Protocol: Rat cortical neurons were cultured as described by Callizot et al (J Neurosci Res 2013, 91:706-716). On day 11 of culture, Aβ oligomer solution, 20 μM, was applied. The Aβ oligomer preparation, having an average weight of 90 kDa, prepared as described by Callizot et al (op cit) contained only diffusible species, not fibrils or protofibrils. Briefly, Aβ1-42 peptide at a concentration of 40 μM was dissolved in the culture medium, gently agitated for 3 days at 37° C. in the dark, and used immediately after dilution. SDL 11349 and BDNF (50 ng/ml) were dissolved in culture medium (maximum of 0.1% DMSO final concentration) then pre-incubated with primary cortical neurons for 24 h before the Aβ1-42 oligomer solution application.
The oligomers were incubated with the neurons and various concentrations of SDL 11349, or BDNF, 50 ng/ml, the positive control, for 24 hours, in 6 replicates per condition. Then the supernatant was removed and the neurons were fixed with a cold ethanol and acetic acid solution. The cells were permeabilized with 0.1% saponin and then incubated for 2 h with mouse monoclonal antibody […] microtubule-associated protein 2 (MAP-2). Subsequently, Alexa-Fluor 488 goat anti-mouse IgG was applied, and images were obtained and analyzed automatically.

[9] = system: CA1 pyramidal neurons in the dorsal hippocampus; assay: dendritic spine assessment after 5 days ip treatment; format: in vivo, mice
Protocol: Adult C57B16 mice, (8 weeks old) were administered vehicle or SDL 11349, 0.005, 0.03, 0.07, 0.1 or 0.2 mg/kg, ip, per day for five days prior to sacrifice after rapid anesthetization with isofluorane. Brain tissue was sectioned into […] slices from anterior to posterior extremes.
Ballistic dye labelling was performed, followed by laser-scanning confocal microscopy (Olympus FV1000) using a 63× objective (1.42 NA) to scan individually labelled neurons at high resolution (0.103×0.103×0.33 μm voxels). Target neurons were identified in the brain region of interest by anatomical location and cell morphology. Microscopy was performed blind to experimental conditions. A minimum of 5 samples per animal were measured for each segment.
Blind deconvolution (AutoQuant) was applied to raw three-dimensional digital images which were then analyzed for spine density and morphology by trained analysts. Individual spines were measured manually for (a) head diameter, (b) length, and (c) neck thickness from image Z-stacks using custom-built Afraxis ESP software. Each dendrite was analyzed by 3 independent analysts.
Automated image assignment software (C++) distributed images to analysts in a randomized manner and ensured that each analyst performed measurements of near equal numbers of dendrites per group. Analysts were blinded to all experimental conditions. […] For spine density and spine morphological classification, data across analysts were averaged to report data for each dendrite. Data population values (N's) were reported from dendrites collected equally from all mice.
Values are reported in tables and plots as group means±standard errors of the mean (SEMs). For all group comparisons of parametric values, statistical significance was determined using the analysis of variance test (ANOVA; SPSS). Post-hoc comparisons were assessed using the Student's t-test (2 tails). […]
Dendritic spine morphology was analyzed from samples taken from secondary apical dendrites, and secondary basal dendrites of CA1 pyramidal neurons in the dorsal hippocampus. […] A 50 μm segment was analyzed from each location.

α7 nicotinic receptors = biological target: T2, α7 nicotinic receptors (Rattus norvegicus, UniProt Q05941); details: cited from earlier work
T2 construct: Primary cultured rat neurons can be depolarized by the application of 1.5 mM choline; endogenous in cells; host or cells: primary cultured rat neurons

[10] = 78-week study; cited from earlier work
γ-secretase [11] = details: cited from earlier work
γ-secretase [12] = details: in vivo; cited from earlier work
[13] = system: adrenal chromaffin and human neuroblastoma cells; details: cited from earlier work
γ-secretase [14] = details: human, in vivo; cited from earlier work

T2 sequence (Q05941 23-502): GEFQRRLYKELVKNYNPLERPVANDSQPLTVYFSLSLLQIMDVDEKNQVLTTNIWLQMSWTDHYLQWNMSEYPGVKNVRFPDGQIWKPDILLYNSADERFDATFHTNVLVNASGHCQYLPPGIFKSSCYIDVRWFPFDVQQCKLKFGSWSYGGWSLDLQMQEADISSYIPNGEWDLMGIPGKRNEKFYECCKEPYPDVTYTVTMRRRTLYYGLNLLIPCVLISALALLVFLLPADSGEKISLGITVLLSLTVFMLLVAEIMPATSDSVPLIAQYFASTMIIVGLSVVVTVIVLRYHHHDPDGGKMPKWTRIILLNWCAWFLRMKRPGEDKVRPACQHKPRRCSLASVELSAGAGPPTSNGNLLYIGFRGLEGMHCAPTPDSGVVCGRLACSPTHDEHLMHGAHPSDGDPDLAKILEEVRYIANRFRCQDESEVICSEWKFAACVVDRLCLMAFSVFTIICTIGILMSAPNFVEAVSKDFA
T1 sequence (P22303 32-614, species assumed): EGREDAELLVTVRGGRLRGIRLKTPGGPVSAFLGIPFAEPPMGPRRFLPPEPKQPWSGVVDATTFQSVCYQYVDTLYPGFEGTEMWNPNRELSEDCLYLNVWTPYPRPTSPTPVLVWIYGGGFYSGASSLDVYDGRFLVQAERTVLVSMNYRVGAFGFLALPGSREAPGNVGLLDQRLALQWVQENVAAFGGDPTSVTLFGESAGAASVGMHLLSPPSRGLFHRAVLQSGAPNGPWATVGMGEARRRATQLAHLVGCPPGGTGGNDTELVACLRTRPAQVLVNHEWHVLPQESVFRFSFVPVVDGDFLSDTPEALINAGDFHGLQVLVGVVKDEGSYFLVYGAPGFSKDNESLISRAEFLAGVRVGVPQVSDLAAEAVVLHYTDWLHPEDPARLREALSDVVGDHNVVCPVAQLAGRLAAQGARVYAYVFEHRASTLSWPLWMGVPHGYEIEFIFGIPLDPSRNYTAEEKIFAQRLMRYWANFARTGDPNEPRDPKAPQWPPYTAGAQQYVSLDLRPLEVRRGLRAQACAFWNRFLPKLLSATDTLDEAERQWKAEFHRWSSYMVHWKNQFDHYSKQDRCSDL

Molecule: Oc1c(I)cc(Cl)c2cccnc12 [Clioquinol]
- ADAS-cog [1]: decreased deterioration on the ADAS-cog

Molecule: O[C@H]1[C@H](O)[C@@H](O)[C@H](O)[C@@H](O)[C@@H]1O [ELND005, scyllo-inositol]
- CSF Aβ and ventricular volume [2]: Significant decreases in CSF Aβ and increases in ventricular volume
- cognitive or behavioral tests [2]: no benefit on any cognitive or behavioral test

Molecule: COc1ccc2c3c1O[C@H]1C[C@@H](O)C=C[C@@]31CCN(C)C2 [Galanthamine HBr]
- NADPH-dependent T1/2 (half-life) ([3]; 5.0 μM, Mouse): >1 h
- NADPH-free T1/2 (half-life) ([3]; 5.0 μM, Mouse): >1 h

Molecule: CN1CCCC1c1cccnc1 (centres unmarked) [Nicotine]
- protection against Aβ plus glutamate toxicity [4]: protective against Aβ plus glutamate toxicity

Molecule: CN(C)Cc1ccc2c(Cl)cc(Cl)c(O)c2n1 [PBT2]
- CSF Aβ42 (patients with mild AD): decreased significantly

Molecule: CNC(=C[N+](=O)[O-])NCCSCc1ccc(CN(C)C)o1 [Ranitidine]
- mean A−>B Papp (apparent permeability) (CaCo-2 cells): 1.1 10^−6 cm s^−1

Molecule: CCCCNC(=O)O[C@H]1C=C[C@@]23CCN(C)Cc4ccc(OC)c(c42)O[C@H]3C1 [SDL 11349, n-butylcarbamate derivative (4aS,6R,8aS)-5,6,9,10,11,12-hexahydro-3-methoxy-11-methyl-4aH-[1]benzofuro[3a,3,2-ef][2]benzazepin-6-ol]
- plasma concentrations at two hours compared with galantamine [5]: slightly lower than those of galantamine
- stability in mouse plasma [5]: stable for greater than two hours
- additional time remaining in the lighted compartment versus saline ([6]; given during training, optimal performance): about 100 seconds
- best dose for memory enhancement ([6]; passive avoidance): 0.5 mg/kg
- enzymatic activity relative to galantamine (acetylcholinesterase [7]): about 36%
- dose at which decreased motility appeared (mice): > 30 mg/kg
- lethality (no lethality up to) (mice): > 100 mg/kg
- adverse effects observed (mice; doses of 50-100 mg/kg): wobbly and off-balance with rapid heart rate still present at 4 hours, but were recovered at 24 hours
- reduction of β-amyloid oligomer concentration in the medium (Bv-2 microglial cells): 38-40%
- predicted oral bioavailability (CaCo-2 cells; based on in vitro CaCo-2 permeability): 80%
- mean A−>B Papp (apparent permeability) (CaCo-2 cells): 20.8 10^−6 cm s^−1
- IC50 (acetylcholinesterase [8]): 1090 nM
- effect on Aβ oligomer-induced loss of neurite network (Rat cortical neurons; 1 μM, Aβ oligomer 20 μM, 24 h): blocked the toxic effect of the Aβ oligomers
- NADPH-free T1/2 (half-life) ([3]; 5.0 μM, Mouse): >1 h
- half-life in liver microsomes ([3]; in-vitro preparation): greater than 60 minutes
- microsomal CLint at 5 μM ([3]; liver microsomes, 5.0 μM, Mouse, read-out: NADPH-dependent CLint (microsomal intrinsic clearance)): 23.5 µL/min/mg
- total spine density, basal samples ([9]; 0.005-0.2 mg/kg ip per day for five days): no effect
- total spine density, apical dendritic samples, versus vehicle ([9]; 0.005-0.2 mg/kg ip per day for five days, all dose groups): statistically significant difference (p<0.05, 2-tailed t-test) or trend (p<.01) compared to vehicle controls
- mature spines on apical dendrites of CA1 pyramidal neurons ([9]; treatment for 5 days): specifically increases mature spines
- enhancement of the depolarization caused by choline (α7 nicotinic receptors; 1 μM, 1.5 mM choline): 15.9±2.1%
- enhancement in presence of FK-1, antibody to the galantamine recognition site (α7 nicotinic receptors): blocked

Molecule: NCCCS(=O)(=O)O [Tramiprosate]
- ADAS-cog [10]: trend towards improvement on the ADAS-cog
- hippocampal volume [10]: reduction of hippocampal volume loss

Molecule: NC(=O)[C@@H](CCC(F)(F)F)N(Cc1ccc(-c2ncon2)cc1F)S(=O)(=O)c1ccc(Cl)cc1 [avagacestat]
- CSF Aβ40 (γ-secretase [11]; human, in vivo): effectively reduces CSF Aβ40
- conversion to dementia (γ-secretase [11]; prodromal Alzheimer's disease, reduced CSF Aβ42): no reduction in conversion to dementia

Molecule: CC(C)[C@H](O)C(=O)N[C@@H](C)C(=O)N[C@@H]1C(=O)N(C)CCc2ccccc21 [semagacestat]
- CSF Aβ (γ-secretase [12]): potently decreased CSF Aβ
- reason for termination of Phase III trials (γ-secretase [12]): poorer performance in treated than placebo patients, and an increased incidence of skin cancer

Molecule: Nc1c2c(nc3ccccc13)CCCC2 [tacrine]
- neuroprotective effect [13]: did not occur

Molecule: C[C@@H](C(=O)O)c1ccc(-c2ccccc2)c(F)c1 [tarenflurbil]
- Phase III outcome (γ-secretase [14]): failed in Phase III

B1: BDNF: brain-derived neurotrophic factor, positive control, gold standard of the neurite assay (protein, UniProt P23560 19-247, looked up)
Neurotrophic factor BDNF …: APMKEANIRGQGGLAYPGVRTHGTLESVNGPKAGSRGLTSLADTFEHVIEELLDEDQKVRPNEENNKDADLYTSRVMLSSQVPLEPPLLFLLEEYKNYLDAANMSMRVRRHSDPARRGELSVCDSISEWVTAADKKTAVDMSGGTVTVLEKVPVSKGQLKQYFYETKCNPMGYTKEGCRGIDKRHWNSQCRTTQSYVRALTMDSKKRIGWRFIRIDTSCVCTLTIKRGR
- effect on Aβ oligomer-induced loss of neurite network (Rat cortical neurons; 50 ng/ml, positive control): preserves the neurite network

— patent US11219627B2, “Clearance of amyloid beta” (priority 2014, dated 2022)
